{"source": "patent US20020013478A1", "about": "“Calanolide analogues and methods of their use” (Sarawak Medichem Pharmaceuticals,Inc., priority 1994, published 2002)", "key": {"2.2.15 cells": {"system": "2.2.15 cells", "test": "Toxicity in 2.2.15 cells, neutral red dye uptake", "type": "cell-based, human", "conditions": "Table II, read-out: HBV IC50", "method": "Cells of 2.2.15 were grown to confluence in 96-well flat-bottomed tissue culture plates and treated with compounds (in 0.2 mL culture medium/well) as described above. Four concentrations of each compound were assayed, each in triplicate cultures, in 3- to 10-fold steps. Untreated control cultures were maintained on each 96-well plate. On each 96-well plate, wells containing no cells were used to correct for light scattering."}, "HCMV": {"system": "HCMV", "test": "HCMV semi-automated CPE-inhibition assay in human foreskin fibroblast cells", "type": "cell-based, human cytomegalovirus"}, "[1]": {"system": "human foreskin fibroblast cells", "test": "Toxicity run with the HCMV assay, human foreskin fibroblast cells", "type": "cell-based", "conditions": "Table II", "summary_of_the_method": "(§1)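 Human foreskin fibroblasts exposed to drug at 37 °C in CO2, either 72 h followed by Coulter Counter counts (triplicate counts, three replicate wells), or seven days followed by dye staining for 1 h and optical density at 550 nm.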"}, "Raji or Daudi cells": {"system": "Raji or Daudi cells", "test": "Toxicity run with the EBV assay", "type": "cell-based, human", "conditions": "Table II", "excerpt": "IC50 (50% inhibitory concentration) is the concentration required to inhibit cell proliferation by 50%"}, "VZV": {"system": "VZV", "test": "VZV plaque reduction assay in human foreskin fibroblast cells", "type": "cell-based, varicella zoster virus", "conditions": "Table II", "summary_of_the_method": "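VZV at 20-30 plaques/well adsorbed 1 h onto HFF monolayers, then 0.5% agarose overlay holding drug at final 100 down to 0.03 μg/mL (1:5 steps), duplicates. Incubation 10 days, extra MEM/agarose overlay on days 3 and 6; neutral red staining, plaques counted.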"}, "[2]": {"system": "human foreskin fibroblast cells", "test": "Toxicity run with the VZV assay, human foreskin fibroblast cells", "type": "cell-based", "conditions": "Table II", "summary_of_the_method": "as §1"}, "[3]": {"system": "HCMV isolates Towne, AD169, E. Mann, Coffman, C9208", "test": "Anti-CMV plaque reduction assay against various laboratory and clinical isolates (Example 40)", "type": "cell-based, human cytomegalovirus"}, "[4]": {"system": "human foreskin fibroblast cells", "test": "Cell viability in the CMV plaque reduction assay (MTC)", "type": "cell-based", "excerpt": "Five calanolide analogues, prepared as described above, were further evaluated for their anti-HCMV activity in plaque reduction assay against various laboratory and clinical isolates (Towne, AD 169, E. Mann, Coffinan, and C9208)."}, "HBV": {"system": "HBV", "test": "HBV replication in cultures of 2.2.15 cells, extracellular HBV virion DNA (primary assay)", "conditions": "for EC50: read-out: HBV EC50", "protocol": "Both intracellular and extracellular HBV DNA are analyzed in order to (i) allow for verification of compound efficacy and (ii) provide possible data on the target site in the HBV replication pathway for the compound from examination of the pattern of viral replicative forms. The culture medium is changed daily during the treatment period to (i) prevent the buildup of potentially toxic metabolites derived from test compounds and (ii) provide an analysis of HBV virion production during discrete 24-hour intervals which enables a quantitative comparison of any effect on virion production.\nThe analysis of HBV DNA is performed using blot hybridization techniques (Southern and slot blot) and [^32P]-labeled HBV-specific probes. HBV DNA levels are measured by comparison to known amounts of HBV DNA standards applied to every nitrocellulose membrane (gel or slot blot). An AMBIS beta scanner, which measures the radioactive decay of the hybridized probes directly from the nitrocellulose membranes, is used for the quantitative analysis. Standard curves, generated by multiple analyses, are used to correlate CPM measurements made by the beta scanner with relative levels of target HBV DNA. The levels of HBV virion DNA released into the culture medium are analyzed by a slot blot hybridization procedure."}}, "note": "Read-outs that look alike come from different tables or passages of the source."}
{"molecule": "CCCc1cc(=O)oc2c3c(c4c(c12)OC(C)(C)C=C4)OC(C)C(C)C3=O", "note": "(racemic) [(±)-7a]", "values": [{"measurement": "IC50", "setting": "2.2.15 cells", "result": 32, "unit": "µM"}, {"measurement": "HCMV EC50", "setting": "HCMV; Table II", "result": 0.15, "unit": "mg/L"}, {"measurement": "HCMV IC50", "setting": "[1]", "result": 19.8, "unit": "mg/L"}, {"measurement": "EBV IC50", "setting": "Raji or Daudi cells", "result": ">50", "unit": "mg/L"}, {"measurement": "VZV EC50", "setting": "VZV", "result": 13.7, "unit": "mg/L"}, {"measurement": "VZV IC50", "setting": "[2]", "result": 33.3, "unit": "mg/L"}, {"measurement": "EC50", "setting": "[3]; isolate AD169", "result": 3.16, "unit": "µM"}, {"measurement": "EC50", "setting": "[3]; isolate C9208", "result": 2.6, "unit": "µM"}, {"measurement": "EC50", "setting": "[3]; isolate Coffman", "result": 3.16, "unit": "µM"}, {"measurement": "EC50", "setting": "[3]; isolate E. Mann", "result": 3.16, "unit": "µM"}, {"measurement": "EC50", "setting": "[3]; isolate Towne", "result": 3.08, "unit": "µM"}, {"measurement": "MTC (minimum drug concentration that reduced cell viability by 25%)", "setting": "[4]", "result": 10, "unit": "µM"}, {"measurement": "EC50", "setting": "HIV-1; CEM-SS MTT assay", "result": 2.82, "unit": "µM"}, {"measurement": "Maximum Protection (%)", "setting": "HIV-1; CEM-SS MTT assay", "result": 55, "unit": "%"}, {"measurement": "EC50", "setting": "HBV; Table II", "result": 44, "unit": "µM"}]}
{"molecule": "CCCc1cc(=O)oc2c3c(c4c(c12)OC(C)(C)C=C4)O[C@H](C)[C@@H](C)C3=O", "note": "[(+)-7, 10(R),11(R)-trans-Dihydro6,6,10,11-tetramethyl-4-propyl-2H,6H,12H-benzo [1,2-b:3,4-b′:5,6-b″]tripyran-2,12-dione]", "values": [{"measurement": "IC50", "setting": "2.2.15 cells; Homo sapiens", "result": 57, "unit": "µM"}, {"measurement": "EC50", "setting": "HCMV; Human betaherpesvirus 5, Fibroblast, Table II", "result": 0.11, "unit": "mg/L"}, {"measurement": "potency against HCMV", "setting": "HCMV; text summary of Table II", "result": "very potent"}, {"measurement": "IC50", "setting": "[1]; Homo sapiens, Fibroblast", "result": 47.9, "unit": "mg/L"}, {"measurement": "IC50", "setting": "Raji or Daudi cells; Homo sapiens", "result": "> 50", "unit": "mg/L"}, {"measurement": "EC50", "setting": "VZV; Human alphaherpesvirus 3, Fibroblast", "result": 55.9, "unit": "mg/L"}, {"measurement": "IC50", "setting": "[2]; Homo sapiens, Fibroblast", "result": "> 100", "unit": "mg/L"}, {"measurement": "EC50", "setting": "[3]; Human betaherpesvirus 5, AD169, isolate AD169", "result": 3.16, "unit": "µM"}, {"measurement": "EC50", "setting": "[3]; Human betaherpesvirus 5, AD169, isolate C9208", "result": 4.91, "unit": "µM"}, {"measurement": "EC50", "setting": "[3]; Human betaherpesvirus 5, AD169, isolate Coffman", "result": 4.78, "unit": "µM"}, {"measurement": "EC50", "setting": "[3]; Human betaherpesvirus 5, AD169, isolate E. Mann", "result": 4.65, "unit": "µM"}, {"measurement": "EC50", "setting": "[3]; Human betaherpesvirus 5, AD169, isolate Towne", "result": 5.02, "unit": "µM"}, {"measurement": "MTC (minimum drug concentration that reduced cell viability by 25%)", "setting": "[4]; isolate AD169", "result": 100, "unit": "µM"}, {"measurement": "MTC (minimum drug concentration that reduced cell viability by 25%)", "setting": "[4]; isolate C9208", "result": ">100", "unit": "µM"}, {"measurement": "MTC (minimum drug concentration that reduced cell viability by 25%)", "setting": "[4]; isolate Coffman", "result": ">100", "unit": "µM"}, {"measurement": "MTC (minimum drug concentration that reduced cell viability by 25%)", "setting": "[4]; isolate E. Mann", "result": 100, "unit": "µM"}, {"measurement": "MTC (minimum drug concentration that reduced cell viability by 25%)", "setting": "[4]; isolate Towne", "result": ">100", "unit": "µM"}, {"measurement": "Maximum Protection (%)", "setting": "HIV-1; CEM-SS MTT assay", "result": 90, "unit": "%"}, {"measurement": "protecting cells against HIV infection", "setting": "HIV-1; text summary of Table I", "result": "highly efficacious"}, {"measurement": "EC50", "setting": "HBV; Hepatitis B virus", "result": 7.2, "unit": "µM"}, {"measurement": "potency against HBV", "setting": "HBV; text summary of Table II", "result": "potent"}]}
